{
  "source": "patent US20220152024A1",
  "about": "“COMBINATIONS USEFUL IN A METHOD FOR TREATING SARCOMA” (PTC THERAPEUTICS, INC., priority 2019, published 2022)",
  "key": {"[1]": {"assay": "Predicted effective human dose from mouse exposure and measured human exposure (FIGS. 6A-D)", "type": "in vivo", "conditions": "monotherapy, orally twice per week", "description": "FIGS. 6A-D summarize the pharmacokinetics of Compound 1 administered as a monotherapy in humans (as measured by AUCLast and Cmax) two times per week in the AST trial, wherein the dotted line in each figure indicates free drug concentration.\n(§1) In contrast to use of allometric conversion factors, FIGS. 6A-D summarize the pharmacokinetics of Compound 1 administration in humans, showing that a conversion factor for Compound 1 based on free drug in humans compared to free drug in mice can be derived to estimate the effective target AUC and Cmax, thus accounting for the differences in free drug between these species.\n(§2) As shown by the dashed line, this predicts that the estimated dose in a human patient of about 2.0 mg/kg (biw) or higher of Compound 1 would be effective.\nAs shown by the dashed line, this predicts that the estimated dose in a human patient of about 1.4 mg/kg (biw) or higher of Compound 1 would be effective.\nAs shown by the dashed line, this predicts that the estimated dose in a human patient of about 2.3 mg/kg (biw) or higher of Compound 1 would be effective.\nAs shown by the dashed line, this predicts that the estimated dose in a human patient of about 1.8 mg/kg (biw) or higher of Compound 1 would be effective."}, "Rat model MTD": {"assay": "Rat model MTD", "conditions": "in vivo"}, "[2]": {"system": "advanced solid tumor (AST) cancers", "assay": "Phase 1a clinical trial NCT02404480, safety, PK and response", "type": "in vivo, human", "conditions": "31 evaluable patients; Compound 1 alone", "procedure": "(§3) FIG. 5 summarizes the duration of Compound 1 treatment alone in an […] (AST) Phase 1a clinical trial (NCT02404480) of 31 evaluable patients to determine safety and pharmacokinetics. The initial human dose of 0.65 mg/kg was based on a rat model MTD of 40 mg/kg, with subsequent higher human dose ranging at 1.3 mg/kg, 2.6 mg/kg, 5.2 mg/kg, 7 mg/kg, and 10 mg/kg. The Standard 3+3 trial design, with 3 patients per cohort, allowed dose escalation for each cohort absent a dose-limiting toxicity (DLT), enabling the next cohort to be treated at the next higher dose. In the event any one patient in the cohort experienced a DLT at a particular dose, the next cohort would be treated at the same dose. A full pharmacokinetic review of each patient was taken on Day 1 and Day 29, with a partial review taken on Day 15.\n(§4) NCT02404480: Phase 1 Study, open-label, first-in-human, evaluated safety and pharmacokinetic (PK) profile for use of Compound 1 in patients with advanced solid tumor (AST) cancers, determined the RP2D (recommended phase II clinical trial dose) according to escalating dose levels.\n(§5) Compound 1 was administered as a […] in NCT02404480, a Phase 1a clinical trial designed to evaluate safety and PK profile for use of Compound 1 in patients with advanced solid tumor (AST) cancers."}, "[3]": {"assay": "Phase 1a clinical trial NCT02404480, safety, PK and response", "type": "in vivo, human", "conditions": "human, in vivo, 2.6 mg/kg, NCT02404480 PK profile, FIG. 6", "procedure": "as §3, §4, §5"}, "[4]": {"system": "SK-UT-1 leiomyosarcoma tumor cells", "type": "in vivo", "procedure": "(§6) A negative coefficient indicates greater inhibition in the combination group than expected based on the activity of the monotherapies. The more negative the coefficient, the greater the activity of the combination.\nThis study utilized SK-UT-1 leiomyosarcoma tumor cells implanted into the flank of athymic nude mice.\nTo compare tumor growth, the area under the curve comparing tumor volume vs day for each individual mouse was calculated and then averaged for each group.\n(§7) Interaction coefficients were determined using the AUCs of the Day 0 to Day 25 tumor volume vs day curves. To take into account the data after Day 25, interaction coefficients were also calculated for the median time to reach 1000 mm3. A negative interaction coefficient indicates synergy."}, "[5]": {"system": "SK-LMS-1 human leiomyosarcoma tumors", "type": "in vivo", "description": "(§8) Leiomyosarcoma accounts for 5-10% of soft tissue sarcomas. Typically, leiomyosarcomas have a complex karyotype and are associated with p53 mutations (Yang J, Du X, Chen K, Ylipaa A, Lazar A J, Trent J, Lev D, Pollock R, Hao X, Hunt K, Zhang W. Genetic aberrations in soft tissue leiomyosarcoma. Cancer Lett. 2009 Mar. 8; 275(1):1-8). The cell line, SK-LMS-1 has a complex karyotype and a mutated p53 gene. Chemotherapy with doxorubicin-based drug regimens such as a combination of doxorubicin and ifosfamide is the standard of care. However, these regimens usually result in cardiotoxicity, rapid development of resistance, and no significant survival advantage. In a previous study utilizing the SK-LMS-1 model, Compound 1 (Cpd 1) was tested at a constant dose (12.5 mg/kg biw) in combination with varying doses/regimens of doxorubicin and gemcitabine. […] Here, SK-LMS-1 cells were passaged for a more extended time in vivo relative to the prior study generating a more aggressive tumor model. This study tested the efficacy of Cpd 1 alone and in combination with the chemotherapeutic agents Doxil and DTIC in the treatment of mice bearing SK-LMS-1 human leiomyosarcoma tumors.\nas §6\nas §7, with “Tumors were ˜222 mm3 in volume when dosing was initiated. […] Interaction” for “Interaction”, “28” for “25”, “28,” for “25,”, “were” for “were also”, “mm^3.” for “mm3.”\nas §6"}, "[6]": {"assay": "Exposure (AUC, Cmax) of Compound 1 in the mouse, free and total drug", "conditions": "in vivo, po", "procedure": "as §1, §2"}, "SK-LMS-1 model": {"system": "SK-LMS-1 model", "assay": "Previous study in the SK-LMS-1 model (doxorubicin, gemcitabine combinations)", "type": "in vivo", "conditions": "Cpd 1 12.5 mg/kg biw with varying doses/regimens of doxorubicin and gemcitabine", "description": "as §8"}, "[7]": {"conditions": "DTIC 4 mg/kg IP tiw, alone or with Cpd 1 12.5 mg/kg PO biw"}, "[8]": {"conditions": "DTIC 21 mg/kg IP qd5, alone or with Cpd 1 12.5 mg/kg PO biw"}, "[9]": {"conditions": "docetaxel 15 mg/kg IP QW6, alone or with Cpd 1 12.5 mg/kg"}, "[10]": {"conditions": "docetaxel 15 mg/kg IP qw6, alone or with Cpd 1 12.5 mg/kg biw6"}},
  "note": "Entries after “also recorded” stand apart in the source; their conditions may differ. Like-named read-outs stand apart in the source and are kept apart here. Marks after values point to notes of the source that are not given here.",
  "data": [
    {"smiles": "Cc1nc2ccc(F)cc2n1-c1nc(N)c(F)c(Nc2ccc(C(F)(F)F)cc2)n1", "note": "[Compound 1, 5-fluoro-2-(6-fluoro-2-methyl-1H-benzo[d]imidazol-1-yl)-N^4-[4-(trifluoromethyl)phenyl]pyrimidine-4,6-diamine]", "values": [
      {"measurement": "minimum effective amount for a 70 kg human subject, for Cmax", "setting": "[1]; targeting free drug at 12.5 mg/kg in the mouse", "result": "about 124 mg"},
      {"measurement": "minimum effective amount for a 70 kg human subject, for Cmax", "setting": "[1]; targeting total drug at 12.5 mg/kg in the mouse", "result": "about 226 mg"},
      {"measurement": "MTD", "setting": "Rat model MTD", "result": 40, "unit": "mg/kg"},
      {"measurement": "patients with a mixed/partial response", "setting": "[2]", "result": "2/31"},
      {"measurement": "patients with stable disease", "setting": "[2]", "result": "5/31"},
      {"measurement": "AUC(0-t)", "setting": "[3]; read-out: target AUCLast", "result": 13100, "unit": "ng·h/mL"},
      {"measurement": "Cmax", "setting": "[3]; read-out: target Cmax", "result": 679, "unit": "ng/mL"},
      {"measurement": "inhibition vs vehicle at Day 25", "setting": "[4]; Cpd 1 12.5 mg/kg BIW6 alone", "result": 35, "unit": "%"},
      {"measurement": "delay of the median time for tumor growth to reach 1000 mm^3", "setting": "[4]; Cpd 1 12.5 mg/kg BIW6 alone, vs vehicle", "result": "~1.7", "unit": "fold"},
      {"measurement": "median time for tumor volume for individual mice to reach 1000 mm^3", "setting": "[4]; Cpd 1 12.5 mg/kg PO biw6 alone", "result": 31.2, "unit": "days"},
      {"measurement": "percent reduction in tumor volume at Day 28 (%)", "setting": "[4]; Cpd 1 12.5 mg/kg PO biw6 alone", "result": "35.4* %"},
      {"measurement": "mean tumor volume on Day 42", "setting": "[4]; Cpd 1 12.5 mg/kg alone, all mice euthanized", "result": 1508, "unit": "mm^3"},
      {"measurement": "mean tumor volume on Day 25", "setting": "[4]; Cpd 1 12.5 mg/kg alone, ~163 mm^3 at start of dosing", "result": 983, "unit": "mm^3"},
      {"measurement": "median time for tumor volume for individual mice to reach 1000 mm^3", "setting": "[5]; Cpd 1 12.5 mg/kg PO biw alone", "result": 23, "unit": "days"},
      {"measurement": "percent reduction in tumor volume at Day 28 (%)", "setting": "[5]; Cpd 1 12.5 mg/kg PO biw alone", "result": 21, "unit": "%"},
      {"measurement": "mean tumor volume on Day 32", "setting": "[5]; Cpd 1 12.5 mg/kg biw alone, all mice euthanized", "result": 1607, "unit": "mm^3"},
      {"measurement": "mean tumor volume on Day 28", "setting": "[5]; Cpd 1 12.5 mg/kg biw alone, ~222 mm3 at start of dosing", "result": 1388, "unit": "mm3"},
      {"measurement": "AUC", "setting": "[6]; Dose in Mouse 10 mg/kg", "result": 21000, "unit": "ng·h/mL"},
      {"measurement": "Cmax", "setting": "[6]; Dose in Mouse 10 mg/kg", "result": 1100, "unit": "ng/mL"},
      {"measurement": "AUC", "setting": "[6]; Dose in Mouse 12.5 mg/kg", "result": 26200, "unit": "ng·h/mL"},
      {"measurement": "Cmax", "setting": "[6]; Dose in Mouse 12.5 mg/kg", "result": 1380, "unit": "ng/mL"}
    ]},
    {"smiles": "CN(C)/N=N/c1[nH]cnc1C(N)=O", "note": "[DTIC, dacarbazine, reference compound]", "values": [
      {"measurement": "median time for tumor volume for individual mice to reach 1000 mm^3", "setting": "[5]; [7]", "result": 19, "unit": "days"},
      {"measurement": "percent reduction in tumor volume at Day 28 (%)", "setting": "[5]; [7]", "result": 0, "unit": "%"},
      {"measurement": "effect on tumor growth", "setting": "[5]; DTIC 4 mg/kg IP tiw, alone or with Cpd 1 12.5 mg/kg biw", "result": "no activity"},
      {"measurement": "median time for tumor volume for individual mice to reach 1000 mm^3", "setting": "[5]; [8]", "result": 35, "unit": "days"},
      {"measurement": "percent reduction in tumor volume at Day 28 (%)", "setting": "[5]; [8]", "result": "74* %"}
    ]},
    {"smiles": "COc1cccc2c1C(=O)c1c(O)c3c(c(O)c1C2=O)C[C@@](O)(C(=O)CO)C[C@@H]3O[C@H]1C[C@H](N)[C@H](O)[C@H](C)O1", "note": "[Doxorubicin, doxorubicin]", "values": [
      {"measurement": "efficacy", "setting": "SK-LMS-1 model", "result": "not active as a monotherapy or in combination with Cpd 1"}
    ]},
    {"smiles": "CC(=O)O[C@@]12CO[C@@H]1C[C@H](O)[C@@]1(C)C(=O)[C@H](O)C3=C(C)[C@@H](OC(=O)[C@H](O)[C@@H](NC(=O)OC(C)(C)C)c4ccccc4)C[C@@](O)([C@@H](OC(=O)c4ccccc4)[C@H]21)C3(C)C", "note": "[docetaxel]", "values": [
      {"measurement": "effect on tumor growth", "setting": "[4]; docetaxel 5 mg/kg IP BIW5.5, alone or with Cpd 1", "result": "no efficacy as a monotherapy"},
      {"measurement": "percent reduction in tumor volume at Day 28 (%)", "setting": "[4]; docetaxel 5 mg/kg IP biw5.5 (11 doses), alone or with Cpd 1 12.5 mg/kg biw6", "result": 2.27, "unit": "%"},
      {"measurement": "median time for tumor volume for individual mice to reach 1000 mm^3", "setting": "[4]; docetaxel 5 mg/kg IP biw5.5, alone or with Cpd 1 12.5 mg/kg biw6", "result": 18.9, "unit": "days"},
      {"measurement": "effect on tumor growth", "setting": "[4]; docetaxel 15 mg/kg IP QW6, alone or with Cpd 1", "result": "tumor growth was delayed; also recorded: more effective than Cpd 1"},
      {"measurement": "inhibition vs vehicle at Day 25", "setting": "[4]; [9]", "result": 78, "unit": "%"},
      {"measurement": "mean tumor size at Day 25", "setting": "[4]; [9]", "result": 1486, "unit": "mm^3"},
      {"measurement": "median time for tumor volume for individual mice to reach 1000 mm^3 (Days)", "setting": "[4]; [10]", "result": "50.1* Days"},
      {"measurement": "percent reduction in tumor volume at Day 28 (%)", "setting": "[4]; [10]", "result": "77.8* %"}
    ]}
  ]
}
